Experimental data from patent publication US9656971B2, “COMT inhibitors” (Hoffmann-La Roche Inc., priority 2012, dated 2017).
Where two headings read alike, the source gives them in different places.

Target: T1, Rec. human COMT (Homo sapiens, UniProt P21964)
T1 sequence (P21964 1-271): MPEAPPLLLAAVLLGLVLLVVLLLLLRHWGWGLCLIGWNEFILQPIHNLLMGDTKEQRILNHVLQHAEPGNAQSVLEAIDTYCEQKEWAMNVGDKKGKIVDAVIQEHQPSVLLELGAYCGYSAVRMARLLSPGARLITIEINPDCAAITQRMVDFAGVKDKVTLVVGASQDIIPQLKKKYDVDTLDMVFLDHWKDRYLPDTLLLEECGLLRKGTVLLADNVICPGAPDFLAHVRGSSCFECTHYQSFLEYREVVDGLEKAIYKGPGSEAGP
Assay: COMT-Fluorescence Assay
Assay type: biochemical
Settings: rec. human COMT 25 nM, 4-Nitrocatechol-Alexa488 200 nM, SAM 500 nM
Description: This intramolecular interaction is disturbed if the 4-Nitrocatechol is methylated. […] This increase of fluorescence intensity can be followed in a kinetic measurement. The slope in the linear range of the kinetic is calculated. An inhibitor compound decreases the slope.
Signal [rfu/min]=(rfu(end-point)−rfu(startpoint))/incubation_time_#2

[1] = COMT-fluorescence assay, read-out: IC50

SMILES: Cc1ncccc1-c1cc(O)c2nc[nH]c(=O)c2c1 [Example 138, 8-hydroxy-6-(2-methylpyridin-3-yl)quinazolin-4(3H)-one]
- IC50 [1]: 0.02 µM

SMILES: O=c1[nH]cnc2c(O)cc(Cl)cc12 [Example 139, 6-Chloro-8-hydroxyquinazolin-4(3H)-one]
- IC50 [1]: 0.29 µM

SMILES: Cc1ccc(O)c2nc[nH]c(=O)c12 [Example 140, 8-Hydroxy-5-methylquinazolin-4(3H)-one]
- IC50 [1]: 5.04 µM

SMILES: O=c1[nH]cnc2c(O)cc(-c3ccc(-n4cccn4)cc3)cc12 [Example 141, 8-Hydroxy-6-(4-pyrazol-1-yl-phenyl)-3H-quinazolin-4-one]
- IC50 (IC50, COMT-fluorescence assay): 0.01 µM

SMILES: O=c1[nH]cnc2c(O)cc(-c3ccc(N4CCOCC4)cc3)cc12 [Example 142, 8-Hydroxy-6-(4-morpholin-4-yl-phenyl)-3H-quinazolin-4-one]
- IC50 (IC50, COMT-fluorescence assay): 0.01 µM

SMILES: O=c1[nH]cnc2c(O)ccc(Cl)c12 [Example 143, 5-Chloro-8-hydroxyquinazolin-4(3H)-one]
- IC50 [1]: 0.81 µM

SMILES: O=c1[nH]cnc2c(O)cc(-c3ccc(Br)nc3)cc12 [Example 144, 6-(6-Bromo-pyridin-3-yl)-8-hydroxy-3H-quinazolin-4-one]
- IC50 [1]: 0.05 µM

SMILES: O=c1[nH]cnc2c(O)cc(-c3ccccc3OC(F)(F)F)cc12 [Example 145, 8-Hydroxy-6-(2-trifluoromethoxy-phenyl)-3H-quinazolin-4-one]
- IC50 [1]: 0.07 µM

SMILES: O=c1[nH]cnc2c(O)cc(-c3cccc(N4CCOCC4)c3)cc12 [Example 146, 8-Hydroxy-6-(3-morpholinophenyl)quinazolin-4(3H)-one]
- IC50 (IC50, COMT-fluorescence assay): 0.02 µM

SMILES: CN(C)c1ccc(-c2cc(O)c3nc[nH]c(=O)c3c2)cc1 [Example 147, 6-(4-Dimethylamino-phenyl)-8-hydroxy-3H-quinazolin-4-one]
- IC50 [1]: 0.02 µM

SMILES: CN(C)c1cccc(-c2cc(O)c3nc[nH]c(=O)c3c2)c1 [Example 148, 6-(3-Dimethylamino-phenyl)-8-hydroxy-3H-quinazolin-4-one]
- IC50 [1]: 0.01 µM

SMILES: O=c1[nH]cnc2c(O)cc(-c3cccc(Cl)c3)cc12 [Example 149, 6-(3-Chloro-phenyl)-8-hydroxy-3H-quinazolin-4-one]
- IC50 (IC50, COMT-fluorescence assay): 0.01 µM

SMILES: O=c1[nH]cnc2c(O)ccc(-c3ccc(F)cc3)c12 [Example 151, 5-(4-Fluorophenyl)-8-hydroxyquinazolin-4(3H)-one]
- IC50 [1]: 0.16 µM

SMILES: O=c1[nH]cnc2c(O)cc(-c3cnn(-c4ccc(F)cc4)c3)cc12 [Example 152, 6-[1-(4-Fluoro-phenyl)-1H-pyrazol-4-yl]-8-hydroxy-3H-quinazolin-4-one]
- IC50 [1]: 0.07 µM

SMILES: O=c1[nH]cnc2c(O)cc(-c3cncnc3)cc12 [Example 153, 8-Hydroxy-6-(pyrimidin-5-yl)quinazolin-4(3H)-one 2,2,2-trifluoroacetate]
- IC50 [1]: 0.19 µM

SMILES: Cn1nc(C(F)(F)F)cc1-c1cc(O)c2nc[nH]c(=O)c2c1 [Example 154, 8-Hydroxy-6-(2-methyl-5-trifluoromethyl-2H-pyrazol-3-yl)-3H-quinazolin-4-one]
- IC50 [1]: 0.02 µM

SMILES: CN(C)Cc1ccccc1-c1cc(O)c2nc[nH]c(=O)c2c1 [Example 155, 6-(2-((Dimethylamino)methyl)phenyl)-8-hydroxyquinazolin-4(3H)-one]
- IC50 (IC50, COMT-fluorescence assay): 1.38 µM

SMILES: Cn1ncc2c(-c3cc(O)c4nc[nH]c(=O)c4c3)cccc21 [Example 156, 8-Hydroxy-6-(1-methyl-1H-indazol-4-yl)quinazolin-4(3H)-one]
- IC50 [1]: 0.01 µM

SMILES: CS(=O)(=O)c1cccc(-c2cc(O)c3nc[nH]c(=O)c3c2)c1 [Example 157, 8-Hydroxy-6-(3-(methylsulfonyl)phenyl)quinazolin-4(3H)-one]
- IC50 (IC50, COMT-fluorescence assay): 0.02 µM

SMILES: CS(=O)(=O)c1ccc(-c2cc(O)c3nc[nH]c(=O)c3c2)c(F)c1 [Example 158, 6-(2-Fluoro-4-(methylsulfonyl)phenyl)-8-hydroxyquinazolin-4(3H)-one]
- IC50 (IC50, COMT-fluorescence assay): 0.03 µM

SMILES: CC(=O)Nc1ccccc1-c1cc(O)c2nc[nH]c(=O)c2c1 [Example 159, N-(2-(8-Hydroxy-4-oxo-3,4-dihydroquinazolin-6-yl)phenyl)acetamide]
- IC50 [1]: 0.55 µM

SMILES: COc1ncc(-c2cc(O)c3nc[nH]c(=O)c3c2)c(OC)n1 [Example 160, 6-(2,4-Dimethoxypyrimidin-5-yl)-8-hydroxyquinazolin-4(3H)-one]
- IC50 [1]: 0.08 µM

SMILES: COc1ccccc1-c1cc(O)c2nc[nH]c(=O)c2c1 [Example 161, 8-Hydroxy-6-(2-methoxyphenyl)quinazolin-4(3H)-one]
- IC50 [1]: 0.05 µM

SMILES: COc1ncccc1-c1cc(O)c2nc[nH]c(=O)c2c1 [Example 162, 8-Hydroxy-6-(2-methoxypyridin-3-yl)quinazolin-4(3H)-one]
- IC50 [1]: 0.03 µM

SMILES: COc1ccc(-c2cc(O)c3nc[nH]c(=O)c3c2)cn1 [Example 163, 8-Hydroxy-6-(6-methoxypyridin-3-yl)quinazolin-4(3H)-one]
- IC50 [1]: 0.04 µM

SMILES: Cc1cscc1-c1cc(O)c2nc[nH]c(=O)c2c1 [Example 164, 8-Hydroxy-6-(4-methylthiophen-3-yl)quinazolin-4(3H)-one]
- IC50 [1]: 0.02 µM

SMILES: Cc1cc(-c2cc(O)c3nc[nH]c(=O)c3c2)c(C)s1 [Example 165, 6-(2,5-Dimethylthiophen-3-yl)-8-hydroxyquinazolin-4(3H)-one]
- IC50 [1]: 0.03 µM

SMILES: Cc1ccc(-c2cc(O)c3nc[nH]c(=O)c3c2)cn1 [Example 166, 8-Hydroxy-6-(6-methylpyridin-3-yl)quinazolin-4(3H)-one]
- IC50 [1]: 0.06 µM

SMILES: O=c1[nH]cnc2c(O)cc(-c3cccc4cccnc34)cc12 [Example 167, 8-Hydroxy-6-(quinolin-8-yl)quinazolin-4(3H)-one]
- IC50 [1]: 0.26 µM

SMILES: O=c1[nH]cnc2c(O)cc(-c3cncc4ccccc34)cc12 [Example 168, 8-Hydroxy-6-(isoquinolin-4-yl)quinazolin-4(3H)-one]
- IC50 [1]: 0.03 µM

SMILES: O=c1[nH]cnc2c(O)cc(-c3ccc4ccccc4c3)cc12 [Example 169, 8-Hydroxy-6-(naphthalen-2-yl)quinazolin-4(3H)-one]
- IC50 [1]: 0.04 µM

SMILES: O=c1[nH]cnc2c(O)cc(-c3cccc4ccccc34)cc12 [Example 170, 8-Hydroxy-6-(naphthalen-1-yl)quinazolin-4(3H)-one]
- IC50 [1]: 0.02 µM

SMILES: O=c1[nH]cnc2c(O)cc(-c3ccc4c(c3)CCNC4)cc12 [Example 171, 8-Hydroxy-6-(1,2,3,4-tetrahydroisoquinolin-6-yl)quinazolin-4(3H)-one]
- IC50 [1]: 0.08 µM

SMILES: O=C(NCCN1CCOCC1)c1ccc(-c2cc(O)c3nc[nH]c(=O)c3c2)cc1 [Example 172, 4-(8-Hydroxy-4-oxo-3,4-dihydroquinazolin-6-yl)-N-(2-morpholinoethyl)benzamide]
- IC50 [1]: 0.02 µM

SMILES: CN(C)CCNC(=O)c1ccc(-c2cc(O)c3nc[nH]c(=O)c3c2)cc1 [Example 173, N-(2-(Dimethylamino)ethyl)-4-(8-hydroxy-4-oxo-3,4-dihydroquinazolin-6-yl)benzamide]
- IC50 [1]: 0.05 µM

SMILES: O=c1[nH]cnc2c(O)cc(-c3ccc4c(c3)CNCC4)cc12 [Example 174, 8-Hydroxy-6-(1,2,3,4-tetrahydroisoquinolin-7-yl)quinazolin-4(3H)-one]
- IC50 (IC50, COMT-fluorescence assay): 0.07 µM

SMILES: O=C(c1cccc(-c2cc(O)c3nc[nH]c(=O)c3c2)c1)N1CCOCC1 [Example 175, 8-Hydroxy-6-(3-(morpholine-4-carbonyl)phenyl)quinazolin-4(3H)-one]
- IC50 [1]: 0.02 µM

SMILES: O=c1[nH]cnc2c(O)cc(-c3ccc4c(c3)OCCO4)cc12 [Example 176, 6-(2,3-Dihydrobenzo[b][1,4]dioxin-6-yl)-8-hydroxyquinazolin-4(3H)-one]
- IC50 [1]: 0.02 µM

SMILES: O=c1[nH]cnc2c(O)cc(-c3ccc4c(c3)OCO4)cc12 [Example 177, 6-(Benzo[d][1,3]dioxol-5-yl)-8-hydroxyquinazolin-4(3H)-one]
- IC50 [1]: 0.04 µM

SMILES: Cc1nc(C)c(-c2cc(O)c3nc[nH]c(=O)c3c2)s1 [Example 178, 6-(2,4-Dimethylthiazol-5-yl)-8-hydroxyquinazolin-4(3H)-one]
- IC50 [1]: 0.01 µM

SMILES: Cn1cc(-c2cc(O)c3nc[nH]c(=O)c3c2)cn1 [Example 179, 8-Hydroxy-6-(1-methyl-1H-pyrazol-4-yl)quinazolin-4(3H)-one]
- IC50 [1]: 0.09 µM

SMILES: O=c1[nH]cnc2c(O)cc(-c3cccnc3O)cc12 [Example 180, 8-Hydroxy-6-(2-hydroxypyridin-3-yl)quinazolin-4(3H)-one]
- IC50 [1]: 0.27 µM

SMILES: Cn1nccc1-c1cc(O)c2nc[nH]c(=O)c2c1 [Example 181, 8-Hydroxy-6-(1-methyl-1H-pyrazol-5-yl)quinazolin-4(3H)-one]
- IC50 [1]: 0.02 µM

SMILES: O=c1[nH]cnc2c(O)cc(-c3ccc(N4CCOCC4)nc3)cc12 [Example 182, 8-Hydroxy-6-(6-morpholinopyridin-3-yl)quinazolin-4(3H)-one]
- IC50 [1]: 0.03 µM

SMILES: CN(C)c1cccc(-c2cc(O)c3nc[nH]c(=O)c3c2)n1 [Example 183, 6-(6-(Dimethylamino)pyridin-2-yl)-8-hydroxyquinazolin-4(3H)-one]
- IC50 [1]: 0.07 µM

SMILES: O=c1[nH]cnc2c(O)cc(-c3ccc(N4CCNCC4)nc3)cc12 [Example 184, 8-Hydroxy-6-(6-(piperazin-1-yl)pyridin-3-yl)quinazolin-4(3H)-one]
- IC50 [1]: 0.02 µM

SMILES: O=c1[nH]cnc2c(O)cc(-c3ccnc(N4CCNCC4)c3)cc12 [Example 185, 8-Hydroxy-6-(2-(piperazin-1-yl)pyridin-4-yl)quinazolin-4(3H)-one]
- IC50 [1]: 0.02 µM

SMILES: O=c1[nH]cnc2c(O)cc(C3=CCCCC3)cc12 [Example 186, 6-Cyclohexenyl-8-hydroxyquinazolin-4(3H)-one]
- IC50 [1]: 0.03 µM

SMILES: O=c1[nH]cnc2c(O)cc(N3CCOCC3)cc12 [Example 187, 8-Hydroxy-6-morpholinoquinazolin-4(3H)-one]
- IC50 [1]: 0.71 µM
